Source: publication PMC10026625 (RSC Advances, 2023)

System: SARS-CoV-2 ancestral Wuhan strain (OMC-510) / VeroE6/TMPRSS2 cells
Settings: plaque reduction assay

With `CC[C@H](C)[C@H](NC(C)=O)C(=O)N[C@@H](CO)C(=O)NCC(=O)N[C@H](C(=O)N[C@@H](CC(N)=O)C(=O)N[C@@H](C)C(=O)N[C@@H](CO)C(=O)N[C@H](C(=O)N[C@H](C(=O)N[C@@H](CC(N)=O)C(=O)N[C@H](C(=O)N[C@@H](CCC(N)=O)C(=O)N[C@@H](CCC(=O)O)C(=O)N[C@@H](CCC(=O)O)C(=O)N[C@H](C(=O)N[C@@H](CCCCN)C(=O)N[C@@H](CCCNC(=N)N)C(=O)N[C@@H](CC(C)C)C(=O)N[C@@H](CC(N)=O)C(=O)N[C@@H](CCC(=O)O)C(=O)N[C@H](C(=O)N[C@@H](C)C(=O)N[C@@H](CCCCN)C(=O)N[C@@H](CCCCN)C(=O)N[C@@H](CC(C)C)C(=O)N[C@@H](CC(N)=O)C(=O)N[C@@H](CCC(=O)O)C(=O)N[C@@H](CO)C(=O)N[C@@H](CC(C)C)C(=O)N[C@H](C(=O)N[C@@H](CC(=O)O)C(=O)N[C@@H](CC(C)C)C(=O)N[C@@H](CCC(N)=O)C(=O)N[C@@H](CCC(=O)O)C(N)=O)[C@@H](C)CC)C(C)C)[C@@H](C)CC)[C@@H](C)CC)C(C)C)C(C)C)[C@@H](C)CC` [Peptide 3a] the “times higher antiviral activity than peptide 1a” value was roughly 4 times and the “times higher antiviral activity than peptide 2a” value was “approximately 10 times”.
